Measured values from patent US20220062291A1, “COMPOSITIONS AND METHODS OF TREATING CANCERS BY ADMINISTERING A PHENOTHIAZINE-RELATED DRUG THAT ACTIVATES PROTEIN PHOSPHATASE 2A (PP2A) WITH REDUCED INHIBITORY ACTIVITY TARGETED TO THE DOPAMINE D2 RECEPTOR AND ACCOMPANYING TOXICITY” (DANA-FARBER CANCER INSTITUTE, INC., priority 2018, published 2022).

Columns and labels:
[1] = test system: PP2A subunits; experiment: Co-immunoprecipitation of PP2A subunits (holoenzyme assembly); design: species or system human; settings: KOPT-K1 cells, 10 μM, 24 hours
Text: (§1) The biochemical activity of iPAP1 was further characterized by addressing whether it acts exclusively on the three identified subunits to mediate the assembly of PP2A, or whether other proteins expressed by T-ALL cells are also required. Using baculovirus vectors, each subunit of PP2A was first expressed with a C-terminal tag in Hi5 insect cells, and then purified the subunit proteins using columns with antibodies against the tags bound to agarose beads (see, Example 5, FIG. 13-FIG. 14). […] PP2A is a unique enzyme consisting of three subunits and it needs to be properly assembled into a holoenzyme before it mediates phosphatase activity. […] The protein lysates were then immunoprecipitated with anti-PPP2CA antibody or normal IgG as a control, and the precipitates were immunoblotted with antibodies specifically detecting each of the PP2A subunits. […] Nuclear and cytoplasmic fractions were separated using NE-PER™ Nuclear and Cytoplasmic Extraction Kit (Thermo Fisher Scientific), and each of the subunits of PP2A was analyzed by western blot. Histone H3 and α tubulin expression levels were used as loading controls for nuclear and cytoplasmic fractions, respectively. […] Lysates were immunoprecipitated using an anti-PPP2CA antibody, and then blotted with antibodies specific for each PP2A subunit. […] The results of a co-immunoprecipitation assay using an anti-PPP2CA antibody for immunoprecipitation in KOPT-K1 cells treated with SMAP at 10 μM or control DMSO for 24 hours before they were lysed for protein extraction are illustrated in FIG. 9B. Lysates were immunoprecipitated using an anti-PPP2CA antibody, and then blotted with antibodies specific for each PP2A subunit.

[2] = in vivo; settings: female, mouse, po
Method: PPZ and iPAP1 were each given per orally to eight-week-old female C57BL/6 mice every 24 hours (n=3 for each cohort). The mice were monitored for four recognized types of dopamine receptor D2 mediated toxicity, namely: i) general activity; ii) reactivity to touch; iii) fear/startle to sound; and iv) tone of abdominal muscle. Behavioral monitoring was done at 15 minutes, 1 hour, 4 hours and 24 hours after each treatment. PPZ and iPAP1 were each administered at 0, 2.5, 5, 10, 20 and 40 mg/kg body weight/dose, and iPAP1 was also administered at 80 mg/kg body weight/dose.

[3] = target: tubulin from porcine brain (Sus scrofa, UniProt P02550+P02554); experiment: Fluorescence-based tubulin polymerization assay; settings: concentrations of up to 2.5 or 5 μM
Sequence of tubulin from porcine brain (P02550 whole entry): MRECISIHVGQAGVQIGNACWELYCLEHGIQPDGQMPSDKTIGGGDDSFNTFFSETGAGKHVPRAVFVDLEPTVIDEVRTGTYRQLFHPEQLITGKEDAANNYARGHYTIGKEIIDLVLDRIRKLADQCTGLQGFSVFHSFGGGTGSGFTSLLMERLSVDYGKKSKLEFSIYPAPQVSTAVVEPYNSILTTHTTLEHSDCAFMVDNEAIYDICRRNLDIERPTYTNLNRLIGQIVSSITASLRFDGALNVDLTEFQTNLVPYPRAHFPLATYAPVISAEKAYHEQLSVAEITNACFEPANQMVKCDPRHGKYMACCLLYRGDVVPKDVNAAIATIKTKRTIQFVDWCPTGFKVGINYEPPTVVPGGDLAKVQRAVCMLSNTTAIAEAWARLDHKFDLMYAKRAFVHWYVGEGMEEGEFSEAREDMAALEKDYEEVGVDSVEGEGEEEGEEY
Sequence of tubulin from porcine brain (P02554 whole entry): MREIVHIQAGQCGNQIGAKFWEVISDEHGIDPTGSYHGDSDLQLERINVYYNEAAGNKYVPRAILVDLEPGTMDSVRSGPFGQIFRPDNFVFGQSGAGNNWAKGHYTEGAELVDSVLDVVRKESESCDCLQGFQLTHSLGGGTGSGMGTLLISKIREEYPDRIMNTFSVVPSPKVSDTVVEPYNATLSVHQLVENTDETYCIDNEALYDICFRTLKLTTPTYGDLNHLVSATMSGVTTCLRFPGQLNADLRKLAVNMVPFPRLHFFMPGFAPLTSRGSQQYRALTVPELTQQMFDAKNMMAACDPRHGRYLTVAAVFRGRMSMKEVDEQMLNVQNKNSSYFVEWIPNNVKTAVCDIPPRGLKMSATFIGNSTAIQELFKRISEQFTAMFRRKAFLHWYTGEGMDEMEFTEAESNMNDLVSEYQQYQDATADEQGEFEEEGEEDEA
Method: Briefly, free tubulin (2 mg/mL) in buffer supplemented with 1 mM GTP and 15% glycerol was employed. Then, the test compounds were added to tubulin solution and changes in the fluorescence intensity (ex=370 nm, em=445 nm) were measured by kinetic reading at 37° C. using SpectraMax® M5 Microplate reader (Molecular Devices LLC).

[4] = target: T1, PP2A subunits (Homo sapiens, UniProt P30153+P67775+Q16537); experiment: Co-immunoprecipitation of PP2A subunits (holoenzyme assembly); settings: purified subunits from insect cells
T1 construct: are endogenously expressed by KOPTK1 cells; endogenous in cells; host or cells: KOPT-K1 T-ALL cells / lysates
T1 sequence (P30153 2-589): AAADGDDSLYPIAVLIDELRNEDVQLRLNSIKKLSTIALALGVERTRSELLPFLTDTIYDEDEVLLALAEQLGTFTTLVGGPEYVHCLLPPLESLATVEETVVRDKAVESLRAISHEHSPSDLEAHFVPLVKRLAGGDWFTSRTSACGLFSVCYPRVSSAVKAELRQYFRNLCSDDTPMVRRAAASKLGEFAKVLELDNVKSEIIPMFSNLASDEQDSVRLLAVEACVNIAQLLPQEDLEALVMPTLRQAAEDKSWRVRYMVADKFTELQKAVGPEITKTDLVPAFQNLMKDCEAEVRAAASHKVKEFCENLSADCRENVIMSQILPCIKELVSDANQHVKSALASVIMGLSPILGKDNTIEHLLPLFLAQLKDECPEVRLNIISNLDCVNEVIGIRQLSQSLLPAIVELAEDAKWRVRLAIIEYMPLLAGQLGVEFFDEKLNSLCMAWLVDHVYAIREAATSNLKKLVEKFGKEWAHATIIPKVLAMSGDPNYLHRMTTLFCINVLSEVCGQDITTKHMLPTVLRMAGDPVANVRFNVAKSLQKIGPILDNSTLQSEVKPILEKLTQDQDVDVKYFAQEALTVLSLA
T1 sequence (P67775 whole entry): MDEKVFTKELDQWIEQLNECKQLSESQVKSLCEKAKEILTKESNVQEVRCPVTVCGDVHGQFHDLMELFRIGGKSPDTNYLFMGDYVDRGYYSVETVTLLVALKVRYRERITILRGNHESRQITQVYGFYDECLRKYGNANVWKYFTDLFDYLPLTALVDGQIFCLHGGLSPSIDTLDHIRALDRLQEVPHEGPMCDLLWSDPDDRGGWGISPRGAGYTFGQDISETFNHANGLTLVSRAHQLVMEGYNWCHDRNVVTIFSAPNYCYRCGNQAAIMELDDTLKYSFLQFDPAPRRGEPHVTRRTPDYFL
T1 sequence (Q16537 2-467): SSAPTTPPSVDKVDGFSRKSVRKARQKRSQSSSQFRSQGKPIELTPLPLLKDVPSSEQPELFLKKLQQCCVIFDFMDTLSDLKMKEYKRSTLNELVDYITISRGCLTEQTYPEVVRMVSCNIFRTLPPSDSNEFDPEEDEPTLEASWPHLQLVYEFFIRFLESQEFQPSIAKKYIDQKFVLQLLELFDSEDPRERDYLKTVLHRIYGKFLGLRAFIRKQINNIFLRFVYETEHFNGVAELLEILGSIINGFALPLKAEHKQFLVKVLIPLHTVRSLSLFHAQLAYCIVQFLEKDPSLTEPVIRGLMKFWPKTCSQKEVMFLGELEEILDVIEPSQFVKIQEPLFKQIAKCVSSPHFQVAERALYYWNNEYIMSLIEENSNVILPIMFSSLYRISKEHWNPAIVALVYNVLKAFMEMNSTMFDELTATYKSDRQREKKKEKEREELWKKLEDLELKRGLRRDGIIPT
Text: as §1

[5] = test system: KOPT-K1 cells; experiment: KOPT-K1 cell viability (PrestoBlue), IC50 after 72 hours; type: cell-based, human
Method: (§2) For IC50 calculation, KOPT-K1 cells were treated with each of the compounds at various concentrations for 72 hours, followed by the determination of viable cell numbers with PrestoBlue® cell viability reagent. For the PP2A phosphatase activity assay, KOPT-K1 cells were treated with each of the compounds at 10 μM for 3 hours before phosphatase activity was measured. Dopamine D2 receptor activity was monitored in HEK293T cells coexpressing the dopamine D2 receptor, modified G protein and SRE luciferase reporter. Cells were treated with each of the compound at 10 μM for 3 hours, then lysed for the luciferase reporter assay.
(§3) For IC50 calculations, KOPT-K1 cells were treated with each of the compound at various concentrations for 72 hours, then their viability was examined by PrestoBlue® Cell Viability Reagent (Thermo Fisher Scientific). For PP2A phosphatase activity assay, KOPT-K1 cells were treated with each of the compound at 10 μM for three hours before the activity of PP2A was quantified using PP2A Immunoprecipitation Phosphatase Assay Kit (Merck Millipore®). DRD2 activity was monitored in HEK293T cells expressing DRD2, modified G protein and SRE luciferase reporter. Cells were treated with each of the compounds at 10 μM for three hours, then lysed for luciferase reporter assay. […] The biochemical assays were performed as indicated in Examples 7 and 8.

[6] = target: T2, PP2A (Homo sapiens, UniProt P30153+P67775+Q16537); experiment: PP2A phosphatase activity in treated KOPT-K1 cells; type: cell-based
T2 construct: are endogenously expressed by KOPTK1 cells; endogenous in cells; host or cells: KOPT-K1 T-ALL cells / lysates
T2 sequence (P30153 2-589): as the sequence (P30153 2-589) above
T2 sequence (P67775 whole entry): as the sequence (P67775 whole entry) above
T2 sequence (Q16537 2-467): as the sequence (Q16537 2-467) above
Method: Data are presented as means±s.d. (n=3, biological replicates). KO; knock out. **P<0.01, ***P<0.001 by student's t-test.
as §2
as §3, with “For PP2A phosphatase activity assay, KOPT-K1 cells were treated with each of the compound at 10 μM for three hours before the activity of PP2A was quantified using PP2A Immunoprecipitation Phosphatase Assay Kit (Merck Millipore®).” left out

Row | SMILES | PP2A subunits co-immunoprecipitated with anti-PPP2CA antibody [1] | MTD at 1 week [2] [mg/kg] | inhibition of tubulin polymerization [3] | assembly of purified PPP2R1A, PPP2CA and PPP2R5E [4] | IC50 ([5]; Homo sapiens, KOPTK1, 72 h, 72 hours, PrestoBlue, read-out: IC50 value against KOPT-K1 cells) [nM] | more active than PPZ for mediating T-ALL cell killing ([5]; KOPT-K1, 72 hours) [times] | more active than PPZ for stimulating PP2A phosphatase activity ([6]; KOPT-K1, 10 μM for three hours) [times] | phosphatase activity of PP2A relative to basal level ([6]; WT KOPT-K1 cells, 1 μM)
1 | OCCN1CCN(CCCN2c3ccccc3Sc3ccc(Cl)cc32)CC1 [PPZ, perphenazine, reference compound] | PPP2CA uniquely binds to PPP2R1A and PPP2R5E | 2.5 |  |  |  |  |  | 
2 | COc1ccc(C(=O)N2c3ccccc3Sc3ccc(Cl)cc32)cc1 [iPAP1] |  |  | inhibition of tubulin polymerization was not detected | assembled into an active enzyme complex | ~400 | 10 | 10 | up to twice its basal level
